Experimental data: PubChem BioAssay (NCI)
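Growth conditions: 96-well plates. Treatment: test compound, 48 hours, 5 concentrations. Analysis: linear interpolation between bracketing concentrations; unreached endpoints set to highest concentration. TGI denotes the concentration required for complete inhibition of growth.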

Columns and labels:
Experiment in all cases: inhibition of tumour cell growth, NCI panel, 48 h
[1] = system: 786-0 renal
[2] = system: A498 renal
[3] = system: DU-145 prostate
[4] = system: HCT-116 colon
[5] = system: HCT-15 colon
[6] = system: HL-60(TB) leukemia
[7] = system: HOP-92 NSCLC
[8] = system: HT29 colon
[9] = system: MDA-N
[10] = system: NCI-H226 lung
[11] = system: NCI-H23 lung
[12] = system: PC-3 prostate
[13] = system: SK-MEL-28 melanoma
[14] = system: SN12C renal
[15] = system: SK-MEL-2 melanoma

Row | SMILES | TGI [1] [µM] | TGI [2] [µM] | TGI [3] [µM] | TGI [4] [µM] | TGI [5] [µM] | TGI [6] [µM] | TGI [7] [µM] | TGI [8] [µM] | TGI [9] [µM] | TGI [10] [µM] | TGI [11] [µM] | TGI [12] [µM] | TGI [13] [µM] | TGI [14] [µM] | TGI [15] [µM]
1 | CC(C)(C)Cc1cc(O)ccc1O | > 100 | > 100 | > 100 | > 100 | > 100 | 26.6 | > 100 | > 100 | > 100 | > 100 | > 100 | > 100 | > 100 | > 100 | –
2 | N#CCN1CCN(CC#N)CCN(CC#N)CCN(CC#N)CC1 | > 100 | > 100 | > 100 | > 100 | – | > 100 | > 100 | > 100 | > 100 | > 100 | > 100 | > 100 | > 100 | > 100 | > 100
3 | C=CC[C@@]12CCC(=O)C=C1CCCC2=O | > 100 | > 100 | > 100 | > 100 | > 100 | > 100 | > 100 | > 100 | > 100 | > 100 | > 100 | > 100 | > 100 | > 100 | > 100
4 | O=C(/C=C/c1ccccc1Br)c1ccccc1 | 4.39 | 11.1 | 20.1 | 3.85 | 6.36 | 3.07 | 32.4 | 9.42 | 18.4 | 36.6 | 12.6 | 23.5 | 15.8 | 21.7 | 31.3
5 | Cc1ncc([N+](=O)[O-])n1CCNC(=O)Cn1ccnc1[N+](=O)[O-] | > 100 | > 100 | > 100 | > 100 | > 100 | > 100 | – | > 100 | > 100 | > 100 | > 100 | > 100 | > 100 | > 100 | > 100
6 | CC(CC(C)[C@H]1CCC2[C@H]3C(CC(=O)[C@@]21C)[C@@]1(C)CCC(O)C[C@H]1C[C@@H]3O)C(=O)O (stereo partly specified) | > 100 | > 100 | > 100 | > 100 | > 100 | > 100 | > 100 | > 100 | > 100 | > 100 | > 100 | > 100 | > 100 | > 100 | > 100
7 | CN1C(=O)C(C#N)C2C[C@@]1(C)Oc1ccccc12 (stereo partly specified) | > 100 | > 100 | > 100 | > 100 | > 100 | > 100 | > 100 | > 100 | > 100 | > 100 | > 100 | > 100 | > 100 | – | > 100
8 | CC1CN=C(NS(=O)(=O)c2cc(C(=O)Nc3ccccc3)c(Cl)cc2S)NN1 (stereo unspecified) | > 100 | 57.4 | > 100 | > 100 | > 100 | > 100 | – | > 100 | 71.5 | > 100 | > 100 | > 100 | > 100 | > 100 | 71.6
9 | COC(=O)/C=C1/OC(c2ccc(C)cc2C)=CC1=O | 24.2 | 42.3 | 30 | 24.1 | 29.3 | > 100 | 45.6 | 18.8 | 36.4 | 48.9 | 61 | 34.9 | 36.3 | – | –
10 | Cc1ccc(C2=Nn3c(nc4sc5c(c4c3=O)CCCC5)SC2)cc1 | > 100 | > 100 | > 100 | > 100 | > 100 | > 100 | > 100 | > 100 | > 100 | > 100 | > 100 | > 100 | > 100 | > 100 | –
11 | CC(C)(C)OC(=O)NC(Cc1ccc(OCc2ccccc2)cn1)C(=O)O (stereo unspecified) | > 100 | > 100 | > 100 | > 100 | > 100 | > 100 | > 100 | > 100 | > 100 | > 100 | > 100 | > 100 | > 100 | > 100 | –
12 | CC(C)(C)OC(=O)NC(Cc1ccc(OCc2ccccc2)cn1)C(N)=O (stereo unspecified) | > 100 | > 100 | > 100 | > 100 | > 100 | > 100 | > 100 | > 100 | > 100 | > 100 | > 100 | > 100 | > 100 | > 100 | –
13 | O=C1OC(C2Cc3ccc4c(c3C2=O)CCCC4)c2ccccc21 (stereo unspecified) | > 100 | 53.6 | > 100 | > 100 | > 100 | > 100 | – | > 100 | > 100 | 59.2 | > 100 | > 100 | > 100 | > 100 | > 100
14 | COc1ccc(OC2OC(CO)C(O)C(O)C2O)cc1 (stereo unspecified) | > 100 | > 100 | > 100 | > 100 | > 100 | > 100 | – | > 100 | > 100 | > 100 | > 100 | > 100 | > 100 | > 100 | > 100
15 | Oc1ccc2ccccc2c1NCn1nc(CCCCCCCCc2nn(CNc3c(O)ccc4ccccc34)c(=S)o2)oc1=S | > 100 | > 100 | > 100 | 79.4 | > 100 | – | > 100 | > 100 | > 100 | > 100 | > 100 | > 100 | > 100 | > 100 | > 100
16 | O=S1(=O)c2ccccc2-c2nccc3ccnc1c23 | > 100 | 84.4 | > 100 | > 100 | – | > 100 | > 100 | 23.2 | > 100 | > 100 | 44 | > 100 | > 100 | 94.1 | > 100
